According to patent US12173018B2, “Penicillin-binding protein inhibitors” (priority 2018, dated 2024):

Tests used:
E. coli ATCC 25922 = test: Broth microdilution MIC, E. coli ATCC 25922; format: cell-based; conditions: Escherichia coli, ATCC25922, read-out: MIC E. coli 25922
Summary of the method: (§1)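 Following CLSI guidance, growth inhibition is measured in Mueller-Hinton broth with divalent cations. Inoculum 5×10^5 CFU/mL; incubation 16-20 hours, 37° C; endpoint is visual absence of growth.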

E. coli AG100 = test: Broth microdilution MIC, E. coli AG100 (wild-type parent); format: cell-based; conditions: Escherichia coli; wild-type parent E. coli AG100, broth microdilution; read-out: MIC E. coli AG100
Summary of the method: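 Broth microdilution in cation-supplemented Mueller-Hinton broth, 2-fold serial compound dilutions, inoculum 5×10^5 CFU/mL from 3-5 h log culture.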

E. coli 901C = test: microbe, parasite or virus in culture; format: cell-based; conditions: Escherichia coli; hyper-permeable E. coli 901C, broth microdilution; read-out: MIC E. coli 901C
Summary of the method: as §1

E. coli AG100A = test: microbe, parasite or virus in culture; format: cell-based; conditions: Escherichia coli, read-out: MIC E. coli AG100A
Summary of the method: as §1

E. coli D22 = test: microbe, parasite or virus in culture; format: cell-based; conditions: Escherichia coli; hyper-permeable E. coli D22, broth microdilution; read-out: MIC E. coli D22
Summary of the method: as §1

K. pneumoniae SI-117 = test: microbe, parasite or virus in culture; format: cell-based; conditions: Klebsiella pneumoniae, SI117, read-out: MIC K. pneumoniae SI-117
Summary of the method: as §1

K. pneumoniae UMM = test: microbe, parasite or virus in culture; format: cell-based; conditions: Klebsiella pneumoniae; K. pneumoniae UMM producing SHV-5 and KPC-2; read-out: MIC K. pneumoniae UMM
Summary of the method: as §1

[1] = system: P. aeruginosa (ΔmexAB-oprM); test: microbe, parasite or virus in culture; format: cell-based; conditions: Pseudomonas aeruginosa, read-out: MIC P. aeruginosa ΔmexAB-OprM
Summary of the method: as §1

P. aeruginosa ATCC 35151 = test: microbe, parasite or virus in culture; format: cell-based; conditions: Pseudomonas aeruginosa, ATCC35151; hyper-permeable P. aeruginosa ATCC 35151; read-out: MIC P. aeruginosa ATCC 35151
Summary of the method: as §1

K. pneumoniae 848844 = test: microbe, parasite or virus in culture; format: cell-based, Klebsiella pneumoniae; conditions: Klebsiella pneumoniae; K. pneumoniae 848844 producing SHV-11 and KPC-2; read-out: MIC K. pneumoniae 848844
Summary of the method: as §1

P. aeruginosa ATCC 27853 = test: Broth microdilution MIC, P. aeruginosa ATCC 27853; format: cell-based; conditions: Pseudomonas aeruginosa, ATCC27853, read-out: MIC P. aeruginosa ATCC 27853
Protocol: To determine the ability of test compounds to potentiate the inhibition of the growth of bacterial strains, classic cell based broth microdilution minimum inhibitory concentration (MIC) assays were employed. MIC assays are performed according to CLSI methods except where otherwise noted (CLSI, 2011 and CLSI, 2009). The reference type strain E. coli ATCC 25922, the wild-type parent strain E. coli AG100, the hyper-permeable E. coli 901C and E. coli D22 and the E. coli AG100A strain lacking the acrAB efflux pump encoding genes were used to determine the ability of the PBP inhibitors to penetrate the outer membrane of gram-negative bacteria and inhibit bacterial growth. […] The P. aeruginosa PAO1, P. aeruginosa ATCC 27853 and A. baumannii ATCC 19606, along with the hyper-permeable P. aeruginosa ATCC 35151 and an engineered efflux pump-compromised strain of P. aeruginosa (ΔmexAB-oprM) were used to determine the ability of PBP inhibitors to penetrate the outer membrane of P. aeruginosa and A. baumannii and assess antibacterial activity against these important gram-negative organisms.
Briefly, cryo-preserved bacterial cultures of challenge strains are streaked for isolation on appropriate agar medium, in this case Mueller Hinton II agar. Following incubation to allow growth of the colonies, plates are sealed with parafilm and stored refrigerated for up to two weeks. For preparation of assay inoculum and to ensure low variability, at least 5 colonies are picked from the agar plates with an inoculating loop and aseptically transferred to a culture tube containing 3 mL of Mueller-Hinton Broth (supplemented with divalent cations to required levels based on Manufacturers' certification). The broth culture is grown for 3-5 hours at 37° C. with shaking at 200 rpm. Meanwhile, 2-fold serial dilutions of test compounds are conducted in a 96 well plate with a final volume of 75 μL per well at 2-fold the final desired concentration. After the dilution plates are set up the growing cultures are then diluted in a cuvette containing MH II broth and the optical density is measured at 600 nm. The Inoculum is diluted such that 75 μL of this culture in Mueller-Hinton Broth results in a starting bacterial concentration of 5×10^5 CFU/mL when added to the dilution plates. The plates are incubated for 16-20 hours at 37° C. The MIC values are read visually as the lowest concentration well with no bacterial growth.

A. baumannii ATCC 19606 = test: Broth microdilution MIC, A. baumannii ATCC 19606; format: cell-based; conditions: Acinetobacter baumannii, ATCC19606, read-out: MIC A. baumannii ATCC 19606
Summary of the method: as §1

What does the source list for C[C@H]1CN(CCN)C(=O)C(=O)N1C(=O)NC(C(=O)N[C@H]1Cc2cccc(C(=O)O)c2OB1O)c1ccc(O)c(O)c1Cl (stereo partly drawn) [Example 248, (3R)-3-(2-((S)-4-(2-aminoethyl)-6-methyl-2,3-dioxopiperazine-1-carboxamido)-2-(2-chloro-3,4-dihydroxyphenyl)acetamido)-2-hydroxy-3,4-dihydro-2H-benzo[e][1,2]oxaborinine-8-carboxylic acid]?
MIC (E. coli ATCC 25922): 8 to 16 µg/mL; MIC (E. coli AG100): 2 to 4 µg/mL; MIC (E. coli 901C): 0.5 to 1 µg/mL; MIC (E. coli AG100A): 0.5 to 1 µg/mL; MIC (E. coli D22): 2 to 4 µg/mL; MIC (K. pneumoniae SI-117): 2 to 4 µg/mL; MIC (K. pneumoniae UMM): 2 to 4 µg/mL; MIC [1]: < 0.25 µg/mL; MIC (P. aeruginosa ATCC 35151): < 0.25 µg/mL; MIC (K. pneumoniae 848844): 2 to 4 µg/mL; MIC (P. aeruginosa ATCC 27853): 32 to 64 µg/mL; MIC (A. baumannii ATCC 19606): 0.5 to 1 µg/mL

With O=C(O)CN1CCN(C(=O)NC(C(=O)N[C@H]2Cc3cccc(C(=O)O)c3OB2O)c2ccc(O)c(O)c2Cl)C(=O)C1=O (stereo partly drawn) [Example 249, (3R)-3-(2-(4-(carboxymethyl)-2,3-dioxopiperazine-1-carboxamido)-2-(2-chloro-3,4-dihydroxyphenyl)acetamido)-2-hydroxy-3,4-dihydro-2H-benzo[e][1,2]oxaborinine-8-carboxylic acid] as the compound, how does the MIC (E. coli ATCC 25922) read?
The MIC was 32 to 64 µg/mL.

And the MIC (E. coli AG100)?
Its MIC is 8 to 16 µg/mL.

And the MIC (E. coli 901C)?
The MIC was 2 to 4 µg/mL.

And the MIC (E. coli AG100A)?
The MIC was 8 to 16 µg/mL.

And the MIC (E. coli D22)?
The MIC was 8 to 16 µg/mL.

And the MIC (K. pneumoniae SI-117)?
The MIC was 8 to 16 µg/mL.

And the MIC (K. pneumoniae UMM)?
Its MIC is 8 to 16 µg/mL.

And the MIC [1]?
Its MIC is under 0.25 µg/mL.

And the MIC (P. aeruginosa ATCC 35151)?
Its MIC is under 0.25 µg/mL.

And the MIC (K. pneumoniae 848844)?
Its MIC is 2 to 4 µg/mL.

What about the MIC (P. aeruginosa ATCC 27853) of the same compound?
Its MIC is 0.5 to 1 µg/mL.

What about the MIC (A. baumannii ATCC 19606) of the same compound?
Its MIC is 0.5 to 1 µg/mL.

How did the MIC (E. coli ATCC 25922) turn out when C[C@H]1CN(CCN)C(=O)C(=O)N1C(=O)N[C@@H](C(=O)N[C@H]1Cc2ccc(F)c(C(=O)O)c2OB1O)c1ccc(O)c(O)c1Cl [Example 250, (R)-3-((R)-2-((S)-4-(2-aminoethyl)-6-methyl-2,3-dioxopiperazine-1-carboxamido)-2-(2-chloro-3,4-dihydroxyphenyl)acetamido)-7-fluoro-2-hydroxy-3,4-dihydro-2H-benzo[e][1,2]oxaborinine-8-carboxylic acid] was run?
Its MIC is 2 to 4 µg/mL.

What about the MIC (E. coli AG100) of the same compound?
The MIC was 0.5 to 1 µg/mL.

And the MIC (E. coli 901C)?
Its MIC is 0.5 to 1 µg/mL.

What about the MIC (E. coli AG100A) of the same compound?
The MIC was 0.5 to 1 µg/mL.

And the MIC (E. coli D22)?
The MIC was 0.5 to 1 µg/mL.

And the MIC (K. pneumoniae SI-117)?
The MIC was 2 to 4 µg/mL.

And the MIC (K. pneumoniae UMM)?
The MIC was 0.5 to 1 µg/mL.

And the MIC [1]?
Its MIC is under 0.25 µg/mL.

What about the MIC (P. aeruginosa ATCC 35151) of the same compound?
The MIC was under 0.25 µg/mL.

What about the MIC (K. pneumoniae 848844) of the same compound?
The MIC was 0.5 to 1 µg/mL.

What about the MIC (P. aeruginosa ATCC 27853) of the same compound?
The MIC was 0.5 to 1 µg/mL.

And the MIC (A. baumannii ATCC 19606)?
Its MIC is under 0.25 µg/mL.

With CCN1CCN(C(=O)N[C@@H](C(=O)N[C@H]2Cc3ccc(F)c(C(=O)O)c3OB2O)c2c(F)cc(O)c(O)c2Cl)C(=O)C1=O [Example 251, (R)-3-((R)-2-(2-chloro-6-fluoro-3,4-dihydroxyphenyl)-2-(4-ethyl-2,3-dioxopiperazine-1-carboxamido)acetamido)-7-fluoro-2-hydroxy-3,4-dihydro-2H-benzo[e][1,2]oxaborinine-8-carboxylic acid] as the compound, how does the MIC (E. coli ATCC 25922) read?
Its MIC is 2 to 4 µg/mL.

What about the MIC (E. coli AG100) of the same compound?
The MIC was 0.5 to 1 µg/mL.

What about the MIC (E. coli 901C) of the same compound?
The MIC was 0.5 to 1 µg/mL.

And the MIC (E. coli AG100A)?
The MIC was 0.5 to 1 µg/mL.

And the MIC (E. coli D22)?
The MIC was 0.5 to 1 µg/mL.

And the MIC (K. pneumoniae SI-117)?
The MIC was 2 to 4 µg/mL.

And the MIC (K. pneumoniae UMM)?
Its MIC is 0.5 to 1 µg/mL.

What about the MIC [1] of the same compound?
Its MIC is under 0.25 µg/mL.

What about the MIC (P. aeruginosa ATCC 35151) of the same compound?
Its MIC is under 0.25 µg/mL.

What about the MIC (K. pneumoniae 848844) of the same compound?
Its MIC is 2 to 4 µg/mL.

What about the MIC (P. aeruginosa ATCC 27853) of the same compound?
The MIC was 0.5 to 1 µg/mL.

What about the MIC (A. baumannii ATCC 19606) of the same compound?
The MIC was 0.5 to 1 µg/mL.

With NCCCN1CCN(C(=O)N[C@@H](C(=O)N[C@H]2Cc3cccc(C(=O)O)c3OB2O)c2ncc(O)cc2F)C(=O)C1=O [Example 252, (R)-3-((R)-2-(4-(3-aminopropyl)-2,3-dioxopiperazine-1-carboxamido)-2-(3-fluoro-5-hydroxypyridin-2-yl)acetamido)-2-hydroxy-3,4-dihydro-2H-benzo[e][1,2]oxaborinine-8-carboxylic acid] as the compound, how does the MIC (E. coli ATCC 25922) read?
Its MIC is 8 to 16 µg/mL.

What about the MIC (E. coli AG100) of the same compound?
Its MIC is 8 to 16 µg/mL.

And the MIC (E. coli 901C)?
Its MIC is 0.5 to 1 µg/mL.

What about the MIC (E. coli AG100A) of the same compound?
Its MIC is 0.5 to 1 µg/mL.

And the MIC (E. coli D22)?
The MIC was 2 to 4 µg/mL.

What about the MIC (K. pneumoniae SI-117) of the same compound?
Its MIC is 32 to 64 µg/mL.

And the MIC (K. pneumoniae UMM)?
Its MIC is 8 to 16 µg/mL.

What about the MIC [1] of the same compound?
The MIC was 8 to 16 µg/mL.

What about the MIC (P. aeruginosa ATCC 35151) of the same compound?
Its MIC is under 0.25 µg/mL.

What about the MIC (K. pneumoniae 848844) of the same compound?
The MIC was 32 to 64 µg/mL.

What about the MIC (P. aeruginosa ATCC 27853) of the same compound?
The MIC was 32 to 64 µg/mL.

What about the MIC (A. baumannii ATCC 19606) of the same compound?
The MIC was over 128 µg/mL.
